Experimental findings from ChEMBL document CHEMBL1201862, “PubChem BioAssay data set” (2004) are described below.

Where “and” joins values, the source holds several entries; their conditions need not be identical. Identical values can stand only once. Calls of active or inactive are those of the source.

Test [1] has as its target Serine/threonine-protein kinase PLK1 (Homo sapiens, UniProt P53350). Format: functional.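 Note: PLK1 measured as one member of a kinome-wide profiling panel.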
In test [2] the target is Receptor tyrosine-protein kinase erbB-4 (Homo sapiens, UniProt Q15303). It counts as functional.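 Note: ERBB4 member of a kinome-wide kinase profiling panel.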
For test [3], the target named is BDNF/NT-3 growth factors receptor (Homo sapiens, UniProt Q16620). It counts as functional.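 Note: NTRK2 measured as one member of a broad kinome-wide kinase profiling panel.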
For test [4], the target named is Receptor-type tyrosine-protein kinase FLT3 (Homo sapiens, UniProt P36888). Format: functional.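 Note: FLT3 was tested as one member of a kinome-wide kinase panel.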
Test [5] has as its target Tyrosine-protein kinase SYK (Homo sapiens, UniProt P43405). Format: functional.
Test [6] deals with Insulin-like growth factor 1 receptor (Homo sapiens, UniProt P08069). Briefly: Navigating the Kinome. Panel member name: IGF1R. Format: functional.
Insulin-like growth factor 1 receptor, sequence (P08069 31-736 limits assumed): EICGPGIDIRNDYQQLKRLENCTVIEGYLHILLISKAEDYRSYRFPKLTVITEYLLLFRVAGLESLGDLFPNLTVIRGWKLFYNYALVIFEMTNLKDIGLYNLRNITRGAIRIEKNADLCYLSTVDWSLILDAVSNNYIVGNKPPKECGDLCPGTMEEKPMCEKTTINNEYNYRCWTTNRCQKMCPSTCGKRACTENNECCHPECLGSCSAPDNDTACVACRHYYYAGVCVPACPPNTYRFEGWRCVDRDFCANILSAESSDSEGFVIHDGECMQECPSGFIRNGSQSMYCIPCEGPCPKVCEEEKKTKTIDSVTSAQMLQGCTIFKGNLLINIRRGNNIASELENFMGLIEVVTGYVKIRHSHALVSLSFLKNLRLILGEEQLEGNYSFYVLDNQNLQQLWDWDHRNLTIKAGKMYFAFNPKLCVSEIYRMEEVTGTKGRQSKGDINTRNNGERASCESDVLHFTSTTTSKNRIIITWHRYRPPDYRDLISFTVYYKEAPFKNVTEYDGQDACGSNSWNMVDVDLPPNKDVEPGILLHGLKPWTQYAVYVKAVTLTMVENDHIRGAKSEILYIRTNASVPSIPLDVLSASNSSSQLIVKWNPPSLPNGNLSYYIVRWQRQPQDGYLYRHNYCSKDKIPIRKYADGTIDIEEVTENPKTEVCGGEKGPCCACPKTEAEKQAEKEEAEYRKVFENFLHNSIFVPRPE
Insulin-like growth factor 1 receptor, sequence (P08069 741-1367 limits assumed): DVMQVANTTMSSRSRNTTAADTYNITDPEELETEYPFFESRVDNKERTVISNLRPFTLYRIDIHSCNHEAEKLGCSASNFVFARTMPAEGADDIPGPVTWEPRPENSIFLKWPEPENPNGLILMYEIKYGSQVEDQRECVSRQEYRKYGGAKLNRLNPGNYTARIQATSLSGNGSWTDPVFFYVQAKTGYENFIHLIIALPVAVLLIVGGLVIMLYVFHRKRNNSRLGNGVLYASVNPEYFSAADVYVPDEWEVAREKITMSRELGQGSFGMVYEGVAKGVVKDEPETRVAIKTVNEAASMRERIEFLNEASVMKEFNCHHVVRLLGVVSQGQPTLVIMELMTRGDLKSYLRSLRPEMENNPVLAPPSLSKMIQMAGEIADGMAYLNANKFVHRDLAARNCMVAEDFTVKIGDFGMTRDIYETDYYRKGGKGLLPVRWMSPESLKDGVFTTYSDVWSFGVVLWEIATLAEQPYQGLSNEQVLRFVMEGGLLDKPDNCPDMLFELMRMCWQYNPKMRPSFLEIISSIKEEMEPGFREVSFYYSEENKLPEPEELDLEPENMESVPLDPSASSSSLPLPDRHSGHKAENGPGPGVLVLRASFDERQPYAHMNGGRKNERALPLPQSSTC
For test [7], the target named is Proto-oncogene tyrosine-protein kinase Src (Homo sapiens, UniProt P12931). Format: functional.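 Note: SRC entry within a kinome-wide kinase profiling panel.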
Proto-oncogene tyrosine-protein kinase Src, sequence (P12931 2-536 limits assumed): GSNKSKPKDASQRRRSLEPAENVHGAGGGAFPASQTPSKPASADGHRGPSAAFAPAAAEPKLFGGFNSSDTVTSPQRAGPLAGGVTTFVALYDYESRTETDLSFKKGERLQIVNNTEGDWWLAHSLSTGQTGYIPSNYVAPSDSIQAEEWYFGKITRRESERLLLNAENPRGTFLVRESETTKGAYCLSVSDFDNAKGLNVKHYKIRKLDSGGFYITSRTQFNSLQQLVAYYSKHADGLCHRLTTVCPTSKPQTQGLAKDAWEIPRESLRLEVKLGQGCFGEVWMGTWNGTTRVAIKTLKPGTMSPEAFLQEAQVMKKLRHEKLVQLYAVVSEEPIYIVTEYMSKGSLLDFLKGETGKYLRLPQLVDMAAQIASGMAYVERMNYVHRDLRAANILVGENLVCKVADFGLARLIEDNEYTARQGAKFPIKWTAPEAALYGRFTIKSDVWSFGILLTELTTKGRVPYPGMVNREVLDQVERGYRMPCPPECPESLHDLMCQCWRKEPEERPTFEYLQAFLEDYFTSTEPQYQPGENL
Test [8] deals with Mitogen-activated protein kinase kinase kinase kinase 2 (Homo sapiens, UniProt Q12851). Format: functional.
Test [9] deals with MAP kinase-activated protein kinase 5 (Homo sapiens, UniProt Q8IW41). Format: functional.
Test [10] deals with Mitogen-activated protein kinase kinase kinase kinase 4 (Homo sapiens, UniProt O95819). Format: functional.
In test [11] the target is STE20-like serine/threonine-protein kinase (Homo sapiens, UniProt Q9H2G2). It counts as functional.
The target of test [12] is Tyrosine-protein kinase JAK3 (Homo sapiens, UniProt P52333). Format: functional.
Tyrosine-protein kinase JAK3, sequence (P52333 whole entry): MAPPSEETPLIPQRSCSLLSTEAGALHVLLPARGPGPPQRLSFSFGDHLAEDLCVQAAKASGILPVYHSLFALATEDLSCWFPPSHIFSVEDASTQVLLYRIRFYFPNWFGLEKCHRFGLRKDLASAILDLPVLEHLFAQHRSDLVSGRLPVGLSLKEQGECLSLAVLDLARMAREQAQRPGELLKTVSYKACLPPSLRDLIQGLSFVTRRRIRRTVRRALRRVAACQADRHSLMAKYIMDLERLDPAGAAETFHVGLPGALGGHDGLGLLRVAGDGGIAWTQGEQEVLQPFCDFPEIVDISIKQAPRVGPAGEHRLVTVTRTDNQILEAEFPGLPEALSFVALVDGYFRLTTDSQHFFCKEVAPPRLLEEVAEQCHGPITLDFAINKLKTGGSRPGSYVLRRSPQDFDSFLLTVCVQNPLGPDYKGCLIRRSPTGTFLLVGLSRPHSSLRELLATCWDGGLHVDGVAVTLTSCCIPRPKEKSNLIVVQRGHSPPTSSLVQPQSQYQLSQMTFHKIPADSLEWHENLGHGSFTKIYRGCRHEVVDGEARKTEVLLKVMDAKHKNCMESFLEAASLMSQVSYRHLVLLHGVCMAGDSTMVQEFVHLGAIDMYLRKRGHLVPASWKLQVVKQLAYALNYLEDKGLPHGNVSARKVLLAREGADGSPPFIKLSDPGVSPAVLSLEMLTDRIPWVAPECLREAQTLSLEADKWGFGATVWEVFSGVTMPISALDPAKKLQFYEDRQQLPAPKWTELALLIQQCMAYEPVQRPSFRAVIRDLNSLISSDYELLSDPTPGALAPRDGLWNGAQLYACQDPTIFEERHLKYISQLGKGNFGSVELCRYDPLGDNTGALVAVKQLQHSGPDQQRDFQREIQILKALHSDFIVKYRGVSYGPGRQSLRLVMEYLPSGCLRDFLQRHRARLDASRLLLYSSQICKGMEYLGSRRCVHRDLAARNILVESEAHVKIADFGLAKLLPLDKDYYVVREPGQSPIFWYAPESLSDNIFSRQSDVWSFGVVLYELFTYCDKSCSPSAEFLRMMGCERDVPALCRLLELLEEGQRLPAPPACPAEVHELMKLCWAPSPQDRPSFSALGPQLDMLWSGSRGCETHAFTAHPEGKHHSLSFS
For test [13], the target named is SRSF protein kinase 1 (Homo sapiens, UniProt Q96SB4). Format: functional.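 Note: measured as one member of a kinome-wide kinase profiling panel.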
In test [14] the target is Death-associated protein kinase 3 (Homo sapiens, UniProt O43293). It counts as functional.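 Note: measured as one member of a kinome-wide profiling panel.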
Test [15] deals with Mitogen-activated protein kinase kinase kinase 20 (Homo sapiens, UniProt Q9NYL2). Format: functional.
Test [16] concerns the target High affinity nerve growth factor receptor (Homo sapiens, UniProt P04629). It counts as functional.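 Note: NTRK1 tested as one member of a kinome-wide profiling panel.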
Test [17] concerns the target Tyrosine-protein kinase ABL1 (Homo sapiens, UniProt P00519). It counts as functional.
Test [18] concerns the target Tyrosine-protein kinase Srms (Homo sapiens, UniProt Q9H3Y6). Format: functional.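 Note: SRMS measured as one member of a kinome-wide kinase profiling panel.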
Test [19] addresses Homeodomain-interacting protein kinase 2 (Homo sapiens, UniProt Q9H2X6). Format: functional.
Test [20] deals with Tyrosine-protein kinase Blk (Homo sapiens, UniProt P51451). Format: functional.
Test [21] can be described thus: growth suppression of PTEN-null colon cells, dose response, cell-based, HCT116 PTEN knockout (AID 1047).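 Note: HCT116 colon tumor cells with PTEN knocked out; cells exposed to compound for 60 hours before readout; potency for loss of cell viability measured by luminescence.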 Format: functional.
Test [22] concerns the target T1, Phosphomannomutase 2 (Homo sapiens, UniProt O15305).
T1 sequence (O15305 whole entry): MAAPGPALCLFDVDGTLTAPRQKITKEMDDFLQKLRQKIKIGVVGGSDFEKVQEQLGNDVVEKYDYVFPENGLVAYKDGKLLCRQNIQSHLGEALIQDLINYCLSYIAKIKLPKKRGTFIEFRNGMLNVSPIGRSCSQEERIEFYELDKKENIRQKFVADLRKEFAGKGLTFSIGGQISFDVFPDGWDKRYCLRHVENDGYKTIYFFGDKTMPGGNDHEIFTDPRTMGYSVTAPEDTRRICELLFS
In words: Counter screen SAR assay for PMM2 inhibitors via a fluorescence intensity assay. [Related pubchem assays (depositor defined):AID1545, AID1574].

Test [23] has as its target T2, Mannose-6-phosphate isomerase (Homo sapiens, UniProt P34949).
T2 sequence (P34949 whole entry): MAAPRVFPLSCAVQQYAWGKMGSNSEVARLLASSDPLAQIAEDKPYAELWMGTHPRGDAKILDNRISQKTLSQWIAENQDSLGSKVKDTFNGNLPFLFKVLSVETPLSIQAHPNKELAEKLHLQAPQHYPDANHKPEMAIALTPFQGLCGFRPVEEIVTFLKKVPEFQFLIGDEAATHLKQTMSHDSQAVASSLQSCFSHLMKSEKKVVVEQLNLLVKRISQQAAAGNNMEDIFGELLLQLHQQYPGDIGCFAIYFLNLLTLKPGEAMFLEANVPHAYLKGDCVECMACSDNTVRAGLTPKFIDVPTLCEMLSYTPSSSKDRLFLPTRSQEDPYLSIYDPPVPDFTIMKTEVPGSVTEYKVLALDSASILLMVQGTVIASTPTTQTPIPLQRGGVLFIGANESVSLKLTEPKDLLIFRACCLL
In words: inhibitors of human PMI, primary screen, biochemical, fluorescence intensity, coupled assay (AID 1209).

Test [24] addresses T3, Aspartyl aminopeptidase (Plasmodium falciparum 3D7, UniProt Q8I2J3).
T3 sequence (Q8I2J3 whole entry): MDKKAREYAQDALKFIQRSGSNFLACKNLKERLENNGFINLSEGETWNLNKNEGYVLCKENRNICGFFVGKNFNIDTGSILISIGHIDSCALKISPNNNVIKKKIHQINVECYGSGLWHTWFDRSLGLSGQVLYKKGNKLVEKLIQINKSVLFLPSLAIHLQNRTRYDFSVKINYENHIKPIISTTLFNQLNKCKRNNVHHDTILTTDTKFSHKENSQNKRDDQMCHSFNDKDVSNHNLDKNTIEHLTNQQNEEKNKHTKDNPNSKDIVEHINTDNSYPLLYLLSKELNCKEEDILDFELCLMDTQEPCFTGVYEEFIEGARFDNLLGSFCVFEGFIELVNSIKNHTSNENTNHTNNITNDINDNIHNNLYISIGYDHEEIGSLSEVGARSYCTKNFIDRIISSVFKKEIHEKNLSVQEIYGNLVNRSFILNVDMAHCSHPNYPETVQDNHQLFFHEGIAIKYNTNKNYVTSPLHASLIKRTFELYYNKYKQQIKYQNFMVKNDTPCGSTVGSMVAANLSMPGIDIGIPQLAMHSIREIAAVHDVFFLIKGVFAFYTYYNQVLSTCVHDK

Test [25] addresses Bifunctional protein GlmU (Mycobacterium tuberculosis, UniProt P9WMN3). Briefly: Inhibitors of Mycobacterial Glucosamine-1-phosphate acetyl transferase (GlmU). Secondary screen. The arrangement: species or system Mycobacterium tuberculosis H37Rv.
Test [26] concerns the target Cytochrome P450 3A4 (Homo sapiens, UniProt P08684).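 Note: CYP3A4 tested as one member of a cytochrome P450 panel screen.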
Test [27] is described as follows: NIH-3T3 fibroblast cytotoxicity, dose response, cytotoxicity control, cell-based, fluorescence, Alamar Blue, secondary assay (AID 2327).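 Note: NIH-3T3 mouse fibroblasts cultured with fluconazole at 8 µg/mL.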 It counts as functional.
Test [28] concerns the target Serine/threonine-protein phosphatase (Candida dubliniensis (strain CD36 / CBS 7987 / NCPF 3949 / NRRLY-17841) (Yeast), UniProt B9W6M3). Briefly: Fluorescence Cell-Based Secondary Assay to Identify Inhibitors of Calcineurin. [Related pubchem assays (depositor defined):AID1979, AID2007]. Format: functional.

Tyrosine-protein kinase ABL1, sequence (P00519 whole entry): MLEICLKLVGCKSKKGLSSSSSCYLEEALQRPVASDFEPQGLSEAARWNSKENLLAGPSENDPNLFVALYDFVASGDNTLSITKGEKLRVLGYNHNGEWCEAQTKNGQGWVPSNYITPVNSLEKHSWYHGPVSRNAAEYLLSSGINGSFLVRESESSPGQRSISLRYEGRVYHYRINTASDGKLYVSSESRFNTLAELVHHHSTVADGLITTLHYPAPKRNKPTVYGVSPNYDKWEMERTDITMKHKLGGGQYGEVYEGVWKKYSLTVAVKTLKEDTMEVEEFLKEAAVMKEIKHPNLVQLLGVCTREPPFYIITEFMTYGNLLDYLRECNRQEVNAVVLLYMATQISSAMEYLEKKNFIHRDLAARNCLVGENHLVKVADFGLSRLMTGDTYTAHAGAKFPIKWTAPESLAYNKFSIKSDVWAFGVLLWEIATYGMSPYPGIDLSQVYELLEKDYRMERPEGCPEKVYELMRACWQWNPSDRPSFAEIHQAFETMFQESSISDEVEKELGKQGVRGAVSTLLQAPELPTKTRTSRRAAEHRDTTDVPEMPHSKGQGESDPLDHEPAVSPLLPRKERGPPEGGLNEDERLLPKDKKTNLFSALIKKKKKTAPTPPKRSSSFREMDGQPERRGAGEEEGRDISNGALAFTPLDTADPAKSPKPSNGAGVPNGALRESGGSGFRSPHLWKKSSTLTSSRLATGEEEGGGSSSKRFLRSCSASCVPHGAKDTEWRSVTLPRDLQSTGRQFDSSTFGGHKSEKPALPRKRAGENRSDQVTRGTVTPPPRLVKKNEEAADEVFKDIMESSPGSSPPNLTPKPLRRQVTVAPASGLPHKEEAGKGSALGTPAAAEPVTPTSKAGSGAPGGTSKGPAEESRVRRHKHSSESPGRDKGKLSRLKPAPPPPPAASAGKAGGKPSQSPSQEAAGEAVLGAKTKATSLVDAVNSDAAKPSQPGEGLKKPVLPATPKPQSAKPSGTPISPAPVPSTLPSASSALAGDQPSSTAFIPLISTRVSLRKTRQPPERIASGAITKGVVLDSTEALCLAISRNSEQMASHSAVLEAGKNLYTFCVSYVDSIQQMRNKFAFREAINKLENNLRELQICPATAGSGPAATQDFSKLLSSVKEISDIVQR
Cytochrome P450 3A4, sequence (P08684 whole entry): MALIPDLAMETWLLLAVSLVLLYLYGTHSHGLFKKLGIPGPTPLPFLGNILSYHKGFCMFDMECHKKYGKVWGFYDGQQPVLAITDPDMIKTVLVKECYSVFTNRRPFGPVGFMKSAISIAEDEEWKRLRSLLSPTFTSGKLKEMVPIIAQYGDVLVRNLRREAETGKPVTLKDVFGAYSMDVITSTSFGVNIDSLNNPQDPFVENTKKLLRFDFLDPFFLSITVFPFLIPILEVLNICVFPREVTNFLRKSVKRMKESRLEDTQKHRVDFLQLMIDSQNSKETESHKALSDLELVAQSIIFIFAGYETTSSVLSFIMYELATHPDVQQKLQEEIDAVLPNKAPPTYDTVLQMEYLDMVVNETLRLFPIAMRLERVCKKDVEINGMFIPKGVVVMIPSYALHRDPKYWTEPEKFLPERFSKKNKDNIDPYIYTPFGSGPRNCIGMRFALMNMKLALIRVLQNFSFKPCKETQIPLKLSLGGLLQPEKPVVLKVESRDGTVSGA

Take `Cc1cccc(NC(=O)Nc2ccc3c(c2)CCc2sc4ncnc(N)c4c2-3)c1`: the Ki in [1] is > 7.94 µM (inactive); in test [2] it was > 3.98 µM (inactive); in test [3] it was 0.2 µM (active); in test [4], 0.002 µM (active); in test [5], 1.58 µM (active); in test [6], > 2 µM (inactive). Also, the Ki in [7] is > 2 µM (inactive); in test [8] it was 2 µM (active); in test [9], > 1.58 µM (inactive); in test [10] it was 2.51 µM (active); in test [11] it was 0.0631 µM (active); in [12], > 1.58 µM (inactive). In addition, the Ki is 3.16 µM (active) in test [13]; > 1.26 µM (inactive) in test [14]; 3.16 µM (active) in [15]; 1.26 µM (active) in test [16]; > 0.631 µM (inactive) in [17]; > 1.58 µM (inactive) in test [18]. Also, the results for the Ki in test [19] and in test [20] were > 3.16 µM (inactive) and 0.126 µM (active), respectively.
Take `Cc1ccc(-n2sc3ccccc3c2=O)cc1`: the concentration giving a half-maximal response (EC50) in test [21] was 31.1 µM (active). In addition, the half-maximal inhibitory concentration (IC50) in test [22] is > 100 µM (inactive) and 38 µM (active); in [23] it was 6.78 µM (active); in test [24] it was 1.25 µM (active).
In the case of `N/C(=N\N=C/c1ccc(-c2ccc(O)c(C(=O)O)c2)o1)N[N+](=O)[O-]`, the IC50 in test [25] is 28.4 µM (active).
Turning to `CC(=O)N(/N=C1\Sc2ccccc2C1=O)c1ccccc1C`, the AC50 in test [26] was 31.6 µM (inconclusive).
As to `CCCC(=O)NC(c1ccc(Cl)cc1)c1ccc2cccnc2c1O` (stereo not drawn), the values for the half-maximal effective concentration (EC50) in [27] and in test [28] were 18 µM (active) and > 285 µM (inactive), respectively.
